Laboratory results: paper PMC9352556, “Glycogen synthase kinase homolog Rim11 regulates lipid synthesis through the phosphorylation of Pah1 phosphatidate phosphatase in yeast” (The Journal of Biological Chemistry, 2022)
Each block holds one molecule with its values, some of them ahead of it.

Experiments:
[1] = biological target: T1, Pah1 (Saccharomyces cerevisiae, UniProt P32567); test: release of […] from […]PA, Triton X-100/PA mixed micelles; assay type: biochemical; conditions: unphosphorylated Pah1; surface concentration of PA in micelles; cooperative, n = 3.4; 1 mM MgCl2, pH 7.5, 30 °C; labelled compound
T1 construct: unphosphorylated
T1 sequence (P32567 1-862): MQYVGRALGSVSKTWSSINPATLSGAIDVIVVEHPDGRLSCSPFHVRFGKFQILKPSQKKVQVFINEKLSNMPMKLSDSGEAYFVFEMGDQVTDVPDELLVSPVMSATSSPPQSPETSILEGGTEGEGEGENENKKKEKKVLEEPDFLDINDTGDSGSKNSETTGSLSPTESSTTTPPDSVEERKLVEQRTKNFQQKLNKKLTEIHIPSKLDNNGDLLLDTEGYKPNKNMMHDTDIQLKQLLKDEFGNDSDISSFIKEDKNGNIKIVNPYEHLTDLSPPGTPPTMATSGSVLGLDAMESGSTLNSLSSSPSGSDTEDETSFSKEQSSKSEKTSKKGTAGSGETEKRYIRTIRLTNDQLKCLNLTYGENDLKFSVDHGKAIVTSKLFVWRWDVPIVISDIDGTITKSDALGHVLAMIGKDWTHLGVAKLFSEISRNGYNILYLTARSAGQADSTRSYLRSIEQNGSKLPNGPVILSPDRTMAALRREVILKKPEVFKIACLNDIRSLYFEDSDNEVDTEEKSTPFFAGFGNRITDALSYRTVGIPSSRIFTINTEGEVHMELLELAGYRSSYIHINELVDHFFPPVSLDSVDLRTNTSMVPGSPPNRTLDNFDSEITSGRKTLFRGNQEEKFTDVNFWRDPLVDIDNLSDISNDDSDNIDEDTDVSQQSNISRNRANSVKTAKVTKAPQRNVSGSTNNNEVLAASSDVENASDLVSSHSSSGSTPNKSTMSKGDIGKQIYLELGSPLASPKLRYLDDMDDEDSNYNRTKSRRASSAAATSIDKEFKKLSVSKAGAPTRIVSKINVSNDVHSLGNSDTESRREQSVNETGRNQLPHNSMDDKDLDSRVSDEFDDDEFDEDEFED

[2] = substrate: Nc1ncnc2c1ncn2[C@@H]1O[C@H](COP(=O)(O)OP(=O)(O)OP(=O)(O)O)[C@@H](O)[C@H]1O; test: purified protein; assay type: biochemical, Saccharomyces cerevisiae; conditions: co-substrate 0.25 μM E. coli-expressed Pah1, 10 mM MgCl2, pH 7.5, 30 °C, labelled compound

Km [1]: 4.2 mol %
Molecule: phosphatidate

B1: Rim11 (Saccharomyces cerevisiae S288C) (protein)
chain: MNIQSNNSPNLSNNIVSKQVYYAHPPPTIDPNDPVQISFPTTEVVGHGSFGVVFATVIQETNEKVAIKKVLQDKRFKNRELEIMKMLSHINIIDLKYFFYERDSQDEIYLNLILEYMPQSLYQRLRHFVHQRTPMSRLEIKYYMFQLFKSLNYLHHFANVCHRDIKPQNLLVDPETWSLKLCDFGSAKQLKPTEPNVSYICSRYYRAPELIFGATNYTNQIDIWSSGCVMAELLLGQPMFPGESGIDQLVEIIKILGTPSKQEICSMNPNYMEHKFPQIKPIPLSRVFKKEDDQTVEFLADVLKYDPLERFNALQCLCSPYFDELKLDDGKINQITTDLKLLEFDENVELGHLSPDELSSVKKKLYPKSK
notes: purified from S. cerevisiae (pSK001, pYES2); endogenously phosphorylated (Tyr199)
Km [2]: 30 µM
